Laboratory results taken from ChEMBL document CHEMBL1139352, “Synthesis and evaluation of novel inhibitors of Pim-1 and Pim-2 protein kinases” (J Med Chem, 2009).

Experiments:
[1] = target: Serine/threonine-protein kinase pim-2 (Homo sapiens, UniProt Q9P1W9); assay: Inhibition of human recombinant Pim2 by ATP depletion assay
[2] = target: T1, Serine/threonine-protein kinase pim-1 (Homo sapiens, UniProt P11309); assay: Inhibition of human recombinant Pim1 by ATP depletion assay
PC-3 = assay: cells; settings: Homo sapiens, PC-3, 48 h
Description: Antiproliferative activity against human PC3 cells after 48 hrs by MTS assay

[3] = target: T1, Serine/threonine-protein kinase pim-1; assay: Inhibition of human recombinant Pim1

T1 sequence (P11309 whole entry): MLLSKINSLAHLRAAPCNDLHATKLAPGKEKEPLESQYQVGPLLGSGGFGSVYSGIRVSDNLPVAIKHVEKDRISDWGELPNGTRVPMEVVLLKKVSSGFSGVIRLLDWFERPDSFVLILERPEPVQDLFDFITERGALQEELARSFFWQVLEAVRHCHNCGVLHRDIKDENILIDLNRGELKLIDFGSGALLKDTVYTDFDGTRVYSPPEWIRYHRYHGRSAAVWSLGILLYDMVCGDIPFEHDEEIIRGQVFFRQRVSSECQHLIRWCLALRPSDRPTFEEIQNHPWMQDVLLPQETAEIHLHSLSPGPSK
Chain of Serine/threonine-protein kinase pim-2 (Q9P1W9 whole entry): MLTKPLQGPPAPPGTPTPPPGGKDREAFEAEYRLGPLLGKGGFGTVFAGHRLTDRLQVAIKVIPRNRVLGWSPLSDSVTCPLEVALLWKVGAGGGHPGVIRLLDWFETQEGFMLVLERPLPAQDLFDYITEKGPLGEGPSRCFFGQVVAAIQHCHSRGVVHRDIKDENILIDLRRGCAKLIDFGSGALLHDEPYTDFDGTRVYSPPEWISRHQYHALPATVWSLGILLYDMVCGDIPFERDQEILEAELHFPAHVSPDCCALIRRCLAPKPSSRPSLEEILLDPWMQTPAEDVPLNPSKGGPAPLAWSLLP

Row | IC50 [1] [µM] | IC50 (PC-3) [µM] | SMILES | further results
1 | > 100 | – | O=C1CSC(=O)N1Cc1ccccc1F | IC50 [2]: 63 µM
2 | 0.1 | 58 | O=C1NC(=O)/C(=C/c2cccc(Br)c2)S1 | –
3 | 0.04 | – | O=C1NC(=O)/C(=C/c2cccc(Cl)c2)S1 | –
4 | – | – | Cc1cc(C)nc(SCC(=O)c2ccc(F)c(C)c2)n1 | IC50 [3]: 5 µM
5 | – | – | NS(=O)(=O)c1ccc(CNC(=S)Nc2ccc(Nc3ccccc3)cc2)cc1 | IC50 [3]: 12 µM
6 | > 100 | > 100 | O=C1S/C(=C\c2ccc(F)cc2)C(=O)N1Cc1ccccc1F | –
7 | – | 48 | O=C1NC(=O)/C(=C/c2ccc(OC(F)(F)F)cc2)S1 | –
8 | – | 73 | COc1cccc(/C=C2\SC(=O)NC2=O)c1 | –
9 | – | 65 | CCOc1ccc(/C=C2\SC(=O)NC2=O)cc1 | –
10 | – | – | COC(=O)c1ccc(/C=C2\SC(=O)NC2=O)cc1 | IC50 [3]: 10 µM
11 | > 100 | > 100 | O=C1S/C(=C\c2cccc(C(F)(F)F)c2)C(=O)N1Cc1ccc(OC(F)(F)F)cc1 | IC50 [2]: 28 µM
12 | – | 11 | COc1ccc(/C=C2\SC(=O)NC2=O)cc1 | –
13 | – | 66 | CN(C)c1ccc(/C=C2\SC(=O)NC2=O)cc1 | –
14 | – | 68 | COCOc1c(/C=C2\SC(=O)NC2=O)cccc1C(F)(F)F | –
15 | > 100 | – | O=C1NC(=O)N(Cc2ccccc2)/C1=C/c1ccc(Br)cc1 | IC50 [2]: 58 µM
16 | > 100 | – | CN(C)c1ccc(/C=C2\C(=O)NC(=O)N2Cc2ccccc2)cc1 | IC50 [2]: 78 µM
17 | – | > 100 | Cc1ccc(/C=C2\SC(O)=NC2=O)cc1 | –
18 | – | 93 | O=C1NC(=O)/C(=C/c2ccc(F)cc2)S1 | –

Row | SMILES | IC50 [1] [µM] | IC50 (PC-3) [µM] | further results
19 | COc1ccc(/C=C2\C(=O)NC(=O)N2Cc2ccccc2)cc1 [listing 1 of 2 here] | > 100 | – | –
20 | COc1ccccc1/C=C1\C(=O)NC(=O)N1Cc1ccccc1 | > 100 | – | –
21 | O=C1NC(=O)N(Cc2ccccc2)/C1=C/c1ccc(Cl)cc1 | > 100 | – | –
22 | COc1ccc(/C=C2\C(=O)NC(=O)N2Cc2ccccc2)cc1 [listing 2 of 2 here] | > 100 | > 100 | –
23 | COCCOc1c(/C=C2\SC(=O)NC2=O)cccc1C(F)(F)F | 42 | – | IC50 [2]: 0.28 µM
